Assay results from patent US11291659B2, “P38 kinase inhibitors reduce DUX4 and downstream gene expression for the treatment of FSHD” (Fulcrum Therapeutics, Inc., priority 2017, dated 2022).

Legend:
Assay type in all cases: cell-based, Human
[1] = test system: MBD3L2 mRNA (DUX4 downstream gene); experiment: MBD3L2 mRNA expression by qPCR in FSHD myotubes
Method: Cell Plating: Performed three days prior to treatment, 10000 cells were plated per well on gelatinized 96-well plates, or 100000 cells on gelatinized 6-well plates.
(§1) For ASO or compound treatments cells were plate into 100 μL of Promocell growth medium containing ASO or compounds at the described concentrations.
(§2) On day 0, change to differentiation media. Remove plates from the incubator and aspirate the growth medium, Wash once with PBS, 100 μL for 96-wells and 1 mL for a 6-well plate, Add 100 μL or 2 mL of differentiation medium per well, 96- or 6-well respectively. Add antisense oligonucleotides or drug at the desire concentration and put back in the incubator. Fusion should start within day 1-2. Incubate for 3-4 days.
(§3) Cells were removed from the incubator and media aspirated. Quickly lysed following one of the following protocols: For lysis in 96-well plates direct lysis and one-step RT-Preamp qPCR protocol described below. For each 96-well prepare a mix containing: 19.5 μL Roche Realtime Ready lysis buffer, 0.25 μL RNAse inhibitor, 0.25 μL DNAseI (from Thermo not the included one in the kit). 20 μL of the mix was added to each well, mix 5 times and incubated 5 minutes at RT or alternatively shaken vigorously for 15 minutes. Lysis was observed under the microscope. Samples were frozen −80° C. at least for 15 minutes,
(§4) For qPCR, dilute 1:10 and use 2 μL for a 10 μL 1-step RT-qPCR reaction. For detection of GAPDH, RPLP0, TBP, MYOG, FRG1, MYH3, ACTN2, etc.). Per 10 μL reaction: RNA (1:10 dilution lysate) 2 μL, Fast Advanced Taqman Master Mix (2×) 5 μL, RT enzyme mix (40×) 0.25 μL, Taqman probe set (20×) 0.5 μL, H2O 2.25 μL. The following reaction protocol was run on the QuantStudio 7: 48° C. for 15 min, 50° C. for 2 min, 95° C. for 30 sec, 40×, 95° C. for 5 sec, 60° C. for 30 sec, then plates were read as specified by the manufacturer (Thermo). For 1-step RT-Preamplification used for detection of DUX4 downstream genes, i.e. MBD3L2, ZSCAN4, LEUTX, TRIM43, KHDC1L. POL2RA-VIC was used as Endogenous control). Per 10 μL reaction: RNA (1:10 dilution lysate) 2.25 μL, Taqman Pre-Amp Master Mix (2×) 5 μL, RT enzyme mix (40×) 0.25 μL, Taqman probe set (0.2×)*2.5 μL, * Pooling the TaqMan Assays: equal volumes of each 20× TaqMan® Gene Expression Assay, up to 100 assays were combined. For example, to pool 50 TaqMan assays, 10 μL of each assay were combined in a microcentrifuge tube. The pooled TaqMan assays were diluted using 1×TE buffer so that each assay is at a final concentration of 0.2×. For the above example, add 500 μL of 1×TE buffer to the pooled TaqMan assays for a total final volume of 1 mL. The QuantStudio7 protocol was used 48° C. 15 min, 95° C. 10 min, 10 cycles: 95° C. 15 sec, 60° C. 4 min, 4° C. infinite. Samples were then diluted to 50 μL and continue with the qPCR step. Per 10 μL reaction: Preamp dilution 2 μL, Fast Advanced Taqman Master Mix (2×) 5 μL, Taqman probe set (20×) 0.5 μL, H2O 2.5 μL. When multiplexing the volume was adjusted to 10 μL total). The following program was run on the QuantStudio7: 50° C. for 2 min, 95° C. for 30 sec, 40×, 95° C. for 5 sec, 60° C. for 30 sec, plates were read as per the manufacturers specifications (Thermo).
(§5) After treatment, the control and treated cells were processed for realtime PCR quantification of MBD3L2 mRNA (DUX4 downstream gene) and myogenin (MYOG) mRNA (control) expression.

myogenin (MYOG) mRNA = experiment: Myogenin (MYOG) mRNA expression by qPCR in FSHD myotubes (control gene)
Method: as §1, §2, §3
as §4, with “For the above example, add 500 μL of 1×TE buffer to the pooled TaqMan assays for a total final volume of 1 mL. The QuantStudio7 protocol was used 48° C. 15 min, 95° C. 10 min, 10 cycles: 95° C. 15 sec, 60° C. 4 min, 4° C. infinite. Samples were then diluted to 50 μL and continue with the qPCR step. Per 10 μL reaction: Preamp dilution 2 μL, Fast Advanced Taqman Master Mix (2×) 5 μL, Taqman probe set (20×) 0.5 μL, H2O 2.5 μL. When multiplexing the volume was adjusted to 10 μL total).” left out
as §5

FSHD myotubes = experiment: Myotube formation / fusion, MHC and DAPI staining; conditions: FSHD myotubes; 10, 100, and 1000 nM
Method: as §2
Briefly, cells were fixed in 4% paraformaldehyde and […] for 10 min at room temperature. Cells were permeabilized with PBST (1×PBS solution with 0.1% Triton X-100) before blocking with 10% Normal Donkey Serum or 3% BSA (NDS) in PBST. […] DUX4 was detected by immunocytochemistry using the E5-5 antibody in differentiated FSHD myotubes. Activated Caspase-3 was detected cell signaling antibody that we're using for ICC, Asp175 (https://www.cellsignal.com/products/primary-antibodies/cleaved-caspase-3-asp175-antibody/9661).
Immortalized FHSD myotubes were differentiated and treated with DMSO vehicle control or FTX-1821 at concentrations of 1 μM, 0.33 μM, 0.11 μM, or 0.037 μM. […] The nuclei in myotubes were quantified according to MHC staining (FIG. 8B).

active Caspase-3 = experiment: Apoptosis by active Caspase-3 in FSHD myotubes; conditions: FSHD1 and FSHD2 lines; 1 μM
Method: Briefly, cells were fixed in 4% paraformaldehyde and […] for 10 min at room temperature. Cells were permeabilized with PBST (1×PBS solution with 0.1% Triton X-100) before blocking with 10% Normal Donkey Serum or 3% BSA (NDS) in PBST. Cells were then incubated with appropriately diluted primary antibodies in PBST with 5% NDS for 1 hours at room temperature or 12 hours at 4° C., washed with PBST for 3 times at room temperature and then incubated with desired secondary antibodies in TBST with 5% NDS and DAPI to counter stain the nuclei. DUX4 was detected by immunocytochemistry using the E5-5 antibody in differentiated FSHD myotubes. Activated Caspase-3 was detected cell signaling antibody that we're using for ICC, Asp175 (https://www.cellsignal.com/products/primary-antibodies/cleaved-caspase-3-asp175-antibody/9661).
Apoptosis was measured by active Caspase-3 levels in FSHD myotubes in vitro as described in Materials and Methods. Apoptosis was detected in a sporadic manner in a subset of myotubes in culture as shown by the white circles and magnified region in FIG. 9A. Active Caspase-3 signal was quantified in FSHD myotubes that had been treated with FTX-1821 at different concentrations (FIG. 9B). […] No change in active Caspase-3 signal was observed following DMSO treatment.

Cn1c(=O)c(Oc2ccc(F)cc2F)cc2cnc(NC(CCO)CCO)nc21 [Pamapimod, 6-(2,4-difluorophenoxy)-2-((1,5-dihydroxypentan-3-yl)amino)-8-methylpyrido[2,3-d]pyrimidin-7(8H)-one]
MBD3L2 mRNA expression ([1]; FSHD1 and FSHD2 primary patient myoblast lines, 1 μM): reduction of MBD3L2
MBD3L2 downstream gene mRNA levels normalized to POLR2A mRNA ([1]; FSHD myotubes, 10, 100, and 1000 nM vs DMSO): dose-dependently reduced
IC50 ([1]; Homo sapiens, Myotube, read-out: IC50, reduction of MBD3L2 mRNA expression, FSHD myotubes, realtime PCR): < 10 nM
MBD3L2 expression levels ([1]; myotubes of four FSHD patient lines FTCE-016, -020, -197, -196, 1 μM): reduced in all of the FSHD lines
MYOG mRNA expression (myogenin (MYOG) mRNA): no impact
differentiation into myotubes (FSHD myotubes): without impacting
apoptosis (active caspase-3) (active Caspase-3): reduction in apoptosis
